# Data reported in publication PMC12369603, “Functional characterization of antennae-enriched chemosensory protein 4 in emerald ash borer, Agrilus planipennis” (PeerJ, 2025).
# Where “and” joins values, the source holds several entries; their conditions need not be identical. Equal values may be shown once. Read-outs that look alike come from different tables or passages of the source.
# Molecular target: recombinant AplaCSP4 (Agrilus planipennis chemosensory protein 4) (Agrilus planipennis, UniProt A0A1W4XLL0)
# Sequence (A0A1W4XLL0 entry or part of it): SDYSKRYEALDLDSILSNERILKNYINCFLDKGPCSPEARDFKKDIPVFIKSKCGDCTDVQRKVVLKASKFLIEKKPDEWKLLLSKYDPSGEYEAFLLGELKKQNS
# Test: biochemical
# Type: binding
# Details: for Competitive binding capability(%) / activity at 2 µM / activity at 4 µM / activity at 6 µM / activity at 8 µM / activity at 10 µM / activity at 12 µM: three replicate columns, 100 at 0 μM; for Kd: read-out: K D ±SE (dissociation constant); for binding to AplaCSP4 (in words): discussion of fluorescence competitive binding results
# Method: Specifically, the binding affinities of AplaCSP4 for 43 volatile organic compounds were determined using F-380 fluorescence spectrophotometer (Tianjin, China) with a 10 nm slits and a 1 cm light path. These 43 substances are common green leaf volatiles, among which 16 volatiles originate from the ash tree. […]
# [1] = AplaCSP4 and 1-NPN each 2 µM, ligands with minimal binding single experiment, read-out: K D ±SE, “–” = no binding (IC50 >16 μM, KD not calculated)
# [2] = ligand concentration 2 μM, 2 µM
# [3] = ligand concentration 4 μM, 4 µM
# [4] = ligand concentration 6 μM, 6 µM
# [5] = ligand concentration 8 μM, 8 µM
# [6] = ligand concentration 10 μM, 10 µM
# [7] = ligand concentration 12 μM, 12 µM
# [8] = pH 7.4, ligand concentration 2 μM, read-out: Competitive binding capability(%)
# [9] = pH 7.4, ligand concentration 4 μM, read-out: Competitive binding capability(%)
# [10] = pH 7.4, ligand concentration 6 μM, read-out: Competitive binding capability(%)
# [11] = pH 7.4, ligand concentration 8 μM, read-out: Competitive binding capability(%)
# [12] = pH 7.4, ligand concentration 10 μM, read-out: Competitive binding capability(%)
# [13] = pH 7.4, ligand concentration 12 μM, read-out: Competitive binding capability(%)
# [14] = AplaCSP4 and 1-NPN each 2 µM, 50 mM Tris–HCl pH 7.4, KD = IC50/(1+[1-NPN]/K1-NPN), mean of three experiments
# [15] = pH 7.4, read-out: Competitive binding capability(%), ligand concentration 2 μM
# [16] = pH 7.4, read-out: Competitive binding capability(%), ligand concentration 4 μM
# [17] = pH 7.4, read-out: Competitive binding capability(%), ligand concentration 6 μM
# [18] = pH 7.4, read-out: Competitive binding capability(%), ligand concentration 8 μM
# [19] = pH 7.4, read-out: Competitive binding capability(%), ligand concentration 10 μM
# [20] = pH 7.4, read-out: Competitive binding capability(%), ligand concentration 12 μM
compound,measurement,setting,value
COC(=O)c1ccccc1 [Methyl benzoate],IC50,,> 16 µM
CCC/C=C/COC(C)=O [trans-2-Hexenyl acetate],IC50,[1],> 16 µM
O=Cc1ccccc1 [Benzaldehyde],IC50,,> 16 µM
COC(=O)c1ccccc1O [Methyl salicylate],IC50,,> 16 µM
CCCCC(C)=O [2-Hexanone],IC50,,> 16 µM
CC/C=C\CCOC(=O)c1ccccc1 [cis-3-Hexenyl benzoate],Competitive binding capability(%),[2],79.0652% and 72.7217%
same,Competitive binding capability(%),[3],62.6633% and 59.3339%
same,Competitive binding capability(%),[4],52.3441% and 49.0753%
same,Competitive binding capability(%),[5],45.5407% and 42.369%
same,Competitive binding capability(%),[6],38.572% and 36.9717%
same,Competitive binding capability(%),[7],34.5851% and 32.8537%
same,activity at 2 µM,[8],76.1%
same,activity at 4 µM,[9],61.8%
same,activity at 6 µM,[10],51.7%
same,activity at 8 µM,[11],44.5%
same,activity at 10 µM,[12],39.2%
same,activity at 12 µM,[13],35%
same,Kd,,4.29 ± 0.18 µM
(±)-Citronellal,IC50,[1],> 16 µM
CCCCCCOC(C)=O [Hexyl acetate],IC50,[1],> 16 µM
C=CCc1ccc(O)c(OC)c1 [Eugenol],IC50,,> 16 µM
CC/C=C\CCOC(=O)C(C)C [cis-3-Hexenyl isobutyrate],IC50,[1],> 16 µM
CCc1ccc(C(C)=O)cc1 [4′-Ethylacetophenone],IC50,,> 16 µM
C=C(C)[C@@H]1CC=C(C)C(=O)C1 [(R)-(-)-Carvone],IC50,,> 16 µM
C=CC(C)(O)CCC=C(C)C (centres unmarked) [Linalool],IC50,,> 16 µM
CCCCCCCCC=O [Nonanal],IC50,[1],> 16 µM
CC/C=C\CCOC(=O)CC(C)C [cis-3-Hexenyl isovalerate],IC50,[1],> 16 µM
C=C1CC/C=C(\C)CC[C@@H]2[C@@H]1CC2(C)C [β-Caryophyllene],IC50,,> 16 µM
CCCCCC=O [Hexanal],IC50,,> 16 µM
"C=C(C)C1CC=C(C)CC1 (single isomer, unassigned; (+)) [(+)-Limonene]",Kd,[14],11.3 ± 0.69 µM
same,binding to AplaCSP4 (in words),,binding capabilities
same,Competitive binding capability(%),ligand concentration 2 μM,97.2535% and 97.4709% and 95.8953%
same,Competitive binding capability(%),ligand concentration 4 μM,90.8935% and 90.3604% and 88.2267%
same,Competitive binding capability(%),ligand concentration 6 μM,83.0381% and 84.401% and 80.748%
same,Competitive binding capability(%),ligand concentration 8 μM,77.7418% and 78.3215% and 71.3561%
same,Competitive binding capability(%),ligand concentration 10 μM,70.6734% and 71.72% and 63.3296%
same,Competitive binding capability(%),ligand concentration 12 μM,65.4243% and 64.4472% and 56.5332%
CCCCCCCC=O [Octanal],IC50,[1],> 16 µM
"CC12CCC(CC1)C(C)(C)O2 [1,8-Cineole]",IC50,,> 16 µM
C=CC(O)CCCCC (centres unmarked) [1-Octen-3-ol],IC50,,> 16 µM
CCCCCCCCCCCC [Dodecane],binding to AplaCSP4 (in words),,binding capabilities
same,Competitive binding capability(%),[2],62.371% and 59.0946%
same,Competitive binding capability(%),[3],40.5144% and 36.3519%
same,Competitive binding capability(%),[4],30.0968% and 29.949%
same,Competitive binding capability(%),[5],26.7121% and 28.4784%
same,Competitive binding capability(%),[6],26.2641% and 27.4122%
same,Competitive binding capability(%),[7],25.5826% and 26.3545%
same,activity at 2 µM,[15],63.1%
same,activity at 4 µM,[16],37.5%
same,activity at 6 µM,[17],29.7%
same,activity at 8 µM,[18],27.4%
same,activity at 10 µM,[19],26.7%
same,activity at 12 µM,[20],25.8%
same,Kd,,1.93 ± 0.09 µM
CCCCCCCCCC [Decane],Competitive binding capability(%),[2],60.8138% and 70.0208%
same,Competitive binding capability(%),[3],45.6655% and 49.8433%
same,Competitive binding capability(%),[4],42.3979% and 46.6766%
same,Competitive binding capability(%),[5],41.2683% and 43.4013%
same,Competitive binding capability(%),[6],39.2004% and 42.0377%
same,Competitive binding capability(%),[7],38.5773% and 39.0548%
same,activity at 2 µM,[15],57.1%
same,activity at 4 µM,[16],45.8%
same,activity at 6 µM,[17],42.4%
same,activity at 8 µM,[18],40.4%
same,activity at 10 µM,[19],39.9%
same,activity at 12 µM,[20],38.2%
same,Kd,,2.87 ± 0.44 µM
CCCCCCO [1-Hexanol],IC50,,> 16 µM
CCCCCCOC(=O)CCC [Hexyl butyrate],Competitive binding capability(%),[2],93.4207% and 91.053%
same,Competitive binding capability(%),[3],84.76% and 83.3555%
same,Competitive binding capability(%),[4],77.5021% and 75.6266%
same,Competitive binding capability(%),[5],71.3681% and 69.2316%
same,Competitive binding capability(%),[6],65.618% and 62.7841%
same,Competitive binding capability(%),[7],61.0388% and 57.6483%
same,activity at 2 µM,[8],93.1%
same,activity at 4 µM,[9],85.4%
same,activity at 6 µM,[10],78.8%
same,activity at 8 µM,[11],72.2%
same,activity at 10 µM,[12],65.8%
same,activity at 12 µM,[13],61.7%
same,Kd,,11.5 ± 0.42 µM
CCCCCCCCCC=O [Decanal],IC50,[1],> 16 µM
CCCCCCCC [n-Octane],Competitive binding capability(%),[2],86.2111% and 85.0437%
same,Competitive binding capability(%),[3],71.3083% and 70.0543%
same,Competitive binding capability(%),[4],57.8901% and 54.2819%
same,Competitive binding capability(%),[5],46.7227% and 42.7241%
same,Competitive binding capability(%),[6],38.967% and 35.7057%
same,Competitive binding capability(%),[7],32.7961% and 31.347%
same,activity at 2 µM,[15],86%
same,activity at 4 µM,[16],67.9%
same,activity at 6 µM,[17],56.4%
same,activity at 8 µM,[18],45%
same,activity at 10 µM,[19],38.2%
same,activity at 12 µM,[20],31.4%
same,Kd,,4.83 ± 0.11 µM
N#CCc1ccccc1 [Phenylacetonitrile],IC50,,> 16 µM
CCCCCCCCCCCCCC [Tetradecane],IC50,[1],> 16 µM
C=CC(C)=CCC=C(C)C [Ocimene],Kd,[14],10.4 ± 1.11 µM
same,binding to AplaCSP4 (in words),,binding capabilities
same,Competitive binding capability(%),ligand concentration 2 μM,93.4067% and 90.0634% and 92.7212%
same,Competitive binding capability(%),ligand concentration 4 μM,88.4911% and 81.8854% and 85.2152%
same,Competitive binding capability(%),ligand concentration 6 μM,82.5386% and 75.7215% and 76.2043%
same,Competitive binding capability(%),ligand concentration 8 μM,75.2984% and 68.1994% and 63.8599%
same,Competitive binding capability(%),ligand concentration 10 μM,69.6898% and 60.3453% and 57.9099%
same,Competitive binding capability(%),ligand concentration 12 μM,63.4481% and 55.0655% and 52.0519%
CC(C)=CCCC(C)=CC=O (mixture of isomers) [Citral],IC50,,> 16 µM
CC/C=C\CCOC(C)=O [cis-3-Hexenyl acetate],IC50,[1],> 16 µM
C=C1CCC2CC1C2(C)C (stereo not drawn) [(-)-β-Pinene],IC50,[1],> 16 µM
CCCCC=O [Valeraldehyde],IC50,[1],> 16 µM
CC/C=C\CCO [cis-3-Hexen-1-ol],IC50,,> 16 µM
CCCC/C=C/C=O [trans-2-Heptenal],IC50,[1],> 16 µM
CCC/C=C/C=O [trans-2-Hexenal],IC50,,> 16 µM
CC(=O)O[C@@H]1C[C@H]2CC[C@]1(C)C2(C)C (racemic) [Isobornyl acetate],IC50,,> 16 µM
CCCCCCCCO [1-Octanol],IC50,[1],> 16 µM
C=CC(=C)CCC=C(C)C [Myrcene],binding to AplaCSP4 (in words),,binding capabilities
same,Competitive binding capability(%),[2],93.6207% and 95.326%
same,Competitive binding capability(%),[3],85.4868% and 89.2675%
same,Competitive binding capability(%),[4],76.2875% and 80.8277%
same,Competitive binding capability(%),[5],67.6403% and 72.2022%
same,Competitive binding capability(%),[6],61.2276% and 66.6056%
same,Competitive binding capability(%),[7],55.297% and 60.7518%
same,activity at 2 µM,[8],93.4%
same,activity at 4 µM,[9],87%
same,activity at 6 µM,[10],75.3%
same,activity at 8 µM,[11],66.9%
same,activity at 10 µM,[12],61.1%
same,activity at 12 µM,[13],54.9%
same,Kd,,9.9 ± 0.34 µM
